Results published in ChEMBL document CHEMBL1137202, “Synthesis and biological activity of new potential agonists for the human adenosine A2A receptor” (J Med Chem, 2004).

How the values were obtained:
[1] = species on record: Cavia porcellus; assay: Concentration-Relaxation Studies was exerted on Guinea Pig Tracheal Rings Precontracted by Carbachol by the compound in presence of Adenosine antagonist DMPX ( E-4 M); type: functional, organism-based; settings: Trachea
[2] = molecular target: T1, Adenosine receptor A2a (Homo sapiens, UniProt P29274); assay: biochemical
Description: Inhibition of [3H]ZM-241385 binding to human adenosine A2A receptor expressed in HeLa cells

[3] = species on record: Cavia porcellus; assay: Concentration-Relaxation Studies was exerted on Guinea Pig Tracheal Rings Precontracted by Carbachol by the compound in presence of Adenosine antagonist CSC ( E-4 M); type: functional, organism-based; settings: Trachea
[4] = molecular target: T2, Adenosine receptor A1 (Homo sapiens, UniProt P30542); assay: Inhibition of [3H]DPCPX binding to human adenosine A1 receptor expressed in CHO cells; type: cell-based
T2 sequence (P30542 whole entry): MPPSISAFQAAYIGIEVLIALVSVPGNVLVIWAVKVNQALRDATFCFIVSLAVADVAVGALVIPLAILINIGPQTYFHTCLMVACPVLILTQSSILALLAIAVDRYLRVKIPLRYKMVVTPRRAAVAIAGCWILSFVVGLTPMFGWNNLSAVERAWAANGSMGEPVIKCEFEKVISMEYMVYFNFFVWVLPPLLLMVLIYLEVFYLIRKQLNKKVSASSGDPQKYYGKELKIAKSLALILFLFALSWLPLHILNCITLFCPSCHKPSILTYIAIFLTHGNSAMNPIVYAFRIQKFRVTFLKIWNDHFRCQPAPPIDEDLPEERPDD

[5] = molecular target: T3, Adenosine receptor A3 (Homo sapiens, UniProt P0DMS8); assay: Inhibition of [3H]NECA binding to human adenosine A3 receptor expressed in HeLa cells; type: cell-based
T3 sequence (P0DMS8 whole entry): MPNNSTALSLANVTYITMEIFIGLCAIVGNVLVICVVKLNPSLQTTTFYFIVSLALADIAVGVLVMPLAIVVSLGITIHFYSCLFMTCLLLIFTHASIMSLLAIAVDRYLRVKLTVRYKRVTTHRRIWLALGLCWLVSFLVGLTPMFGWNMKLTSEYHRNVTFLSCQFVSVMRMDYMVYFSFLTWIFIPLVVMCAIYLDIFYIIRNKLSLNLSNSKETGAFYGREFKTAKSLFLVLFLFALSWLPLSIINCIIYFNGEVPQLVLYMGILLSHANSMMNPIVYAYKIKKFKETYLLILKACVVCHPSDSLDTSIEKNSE

[6] = molecular target: Adenosine receptor A2a (Rattus norvegicus, UniProt P30543)
Description: Efficacy against phenylephrine precontracted tissue relaxation in rat aorta

[7] = molecular target: T1, Adenosine receptor A2a
Description: Potency against cAMP formation in CHO cells expressing recombinant human A2A receptor

[8] = species on record: Cavia porcellus; assay: Concentration-Relaxation Studies was exerted on Guinea Pig Tracheal Rings Precontracted by Carbachol by the compound in presence of Adenosine antagonist Alloxazine ( E-4 M); type: functional, organism-based; settings: Trachea
[9] = species on record: Cavia porcellus; assay: Concentration-Relaxation Studies was exerted on Guinea Pig Tracheal Rings Precontracted by Carbachol by the compound in presence of Adenosine antagonist 8-PT ( E-4 M); type: functional, organism-based; settings: Trachea
[10] = molecular target: T4, Adenosine receptor A2b (Homo sapiens, UniProt P29275); assay: Inhibition of [3H]DPCPX binding to human adenosine A2B receptor expressed in HEK293 cells; type: cell-based
T4 sequence (P29275 whole entry): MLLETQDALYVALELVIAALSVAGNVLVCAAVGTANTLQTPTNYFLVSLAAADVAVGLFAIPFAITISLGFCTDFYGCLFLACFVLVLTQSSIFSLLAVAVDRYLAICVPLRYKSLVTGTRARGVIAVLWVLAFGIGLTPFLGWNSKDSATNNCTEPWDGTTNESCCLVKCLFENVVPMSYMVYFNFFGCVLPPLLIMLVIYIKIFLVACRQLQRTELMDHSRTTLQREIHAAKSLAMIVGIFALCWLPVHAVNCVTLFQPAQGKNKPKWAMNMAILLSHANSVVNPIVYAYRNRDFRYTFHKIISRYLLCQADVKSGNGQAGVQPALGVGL

[11] = tested on: Adenosine receptor A2b (Cavia porcellus); assay: Relative efficacy against phenylephrine precontracted tissue relaxation in Guinea pig aorta compared to NECA
[12] = molecular target: Adenosine receptor A2b (Cavia porcellus); assay: Relative efficacy against phenylephrine precontracted tissue relaxation in Guinea pig aorta
[13] = molecular target: T4, Adenosine receptor A2b; assay: Potency against cAMP formation in CHO cells expressing recombinant human A2B receptor; type: functional, cell-based

T1 sequence (P29274 whole entry): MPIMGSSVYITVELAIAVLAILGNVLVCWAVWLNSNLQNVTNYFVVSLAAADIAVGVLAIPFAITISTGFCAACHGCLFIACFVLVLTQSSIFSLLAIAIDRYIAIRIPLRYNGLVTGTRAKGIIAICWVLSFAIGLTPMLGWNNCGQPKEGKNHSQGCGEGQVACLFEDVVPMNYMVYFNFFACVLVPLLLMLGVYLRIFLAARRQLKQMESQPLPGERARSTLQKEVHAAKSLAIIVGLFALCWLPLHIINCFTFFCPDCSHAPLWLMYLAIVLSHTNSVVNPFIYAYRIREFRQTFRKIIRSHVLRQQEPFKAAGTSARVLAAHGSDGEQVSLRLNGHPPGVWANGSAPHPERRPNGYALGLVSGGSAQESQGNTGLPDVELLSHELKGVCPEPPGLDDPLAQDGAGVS
Chain of Adenosine receptor A2a (Rattus norvegicus, UniProt P30543) (P30543 whole entry): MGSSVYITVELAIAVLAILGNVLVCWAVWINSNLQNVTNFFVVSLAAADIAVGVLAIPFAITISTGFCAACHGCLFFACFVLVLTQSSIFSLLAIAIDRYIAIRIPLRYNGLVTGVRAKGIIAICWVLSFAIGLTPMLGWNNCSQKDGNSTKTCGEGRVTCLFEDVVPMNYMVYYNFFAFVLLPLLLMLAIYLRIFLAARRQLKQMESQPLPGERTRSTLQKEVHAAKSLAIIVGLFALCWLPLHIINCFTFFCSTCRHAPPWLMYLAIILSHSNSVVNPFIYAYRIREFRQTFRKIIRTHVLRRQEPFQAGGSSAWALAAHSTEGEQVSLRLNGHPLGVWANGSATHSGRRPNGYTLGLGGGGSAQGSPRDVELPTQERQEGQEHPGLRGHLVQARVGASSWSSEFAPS

| EC50 [1] | Ki [2] | EC50 [3] | Ki [4] | Ki [5] | EC50 [6] | EC50 [7] | EC50 [8] | Ki [10] | Emax [11] | EC50 [12] | EC50 [13] | Structure (SMILES) | EC50 [9] |
| --- | --- | --- | --- | --- | --- | --- | --- | --- | --- | --- | --- | --- | --- |
| 23000 nM | 1 nM | 26000 nM | 356 nM | 100 nM | 4 nM | 3 nM | 15000 nM | – | – | – | – | CCn1nnc([C@H]2O[C@@H](n3cnc4c(N)nc(N[C@H](C)Cc5ccc(OC)cc5)nc43)[C@H](O)[C@@H]2O)n1 | – |
| – | 5 nM | – | 310 nM | 83 nM | 6.7 nM | 1.6 nM | – | 2260 nM | 125% | 1300 nM | 560 nM | CCn1nnc([C@H]2O[C@@H](n3cnc4c(N)nc(N[C@H](CO)Cc5ccc(Br)cc5)nc43)[C@H](O)[C@@H]2O)n1 | – |
| – | 48 nM | – | > 10000 nM | 400 nM | – | 3.1 nM | – | 3660 nM | – | – | 1200 nM | CCn1nnc([C@H]2O[C@@H](n3cnc4c(N)nc(N[C@H](CO)Cc5ccc([N+](=O)[O-])cc5)nc43)[C@H](O)[C@@H]2O)n1 | – |
| 36000 nM | 38 nM | 22000 nM | > 10000 nM | 130 nM | – | 1.4 nM | 36000 nM | 1180 nM | – | – | 680 nM | CCn1nnc([C@H]2O[C@@H](n3cnc4c(N)nc(N[C@H](CO)Cc5ccc(OC)cc5)nc43)[C@H](O)[C@@H]2O)n1 | – |
| – | 270 nM | 17000 nM | 670 nM | 288 nM | – | 97 nM | 38000 nM | 2720 nM | – | – | 4700 nM | CCn1nnc([C@H]2O[C@@H](n3cnc4c(N)nc(N[C@H](CO)Cc5ccc(Cl)cc5)nc43)[C@H](O)[C@@H]2O)n1 | – |
| – | 5 nM | – | – | 140 nM | 2.9 nM | 8 nM | – | – | – | – | – | CCn1nnc([C@H]2O[C@@H](n3cnc4c(N)nc(N[C@H](CO)Cc5ccc(O)cc5)nc43)[C@H](O)[C@@H]2O)n1 | – |
| 340000 nM | – | 570000 nM | – | – | – | – | 550000 nM | – | – | – | – | Nc1ncnc2c1ncn2[C@@H]1O[C@H](CO)[C@@H](O)[C@H]1O [ADENOSINE] | 460000 nM |

| Structure (SMILES) | EC50 [1] | Ki [2] | EC50 [3] | Ki [4] | Ki [5] | EC50 [6] | EC50 [7] | EC50 [8] | Ki [10] | Emax [11] | EC50 [12] | EC50 [13] | EC50 [9] |
| --- | --- | --- | --- | --- | --- | --- | --- | --- | --- | --- | --- | --- | --- |
| CCn1nnc([C@H]2O[C@@H](n3cnc4c(N)nc(N[C@H](CO)Cc5ccccc5)nc43)[C@H](O)[C@@H]2O)n1 [GW-328267] | 46000 nM | 46 nM | 51000 nM | 369 nM | – | 10 nM | 8.8 nM | 88000 nM | – | – | – | – | 64000 nM |
| CCNC(=O)[C@H]1O[C@@H](n2cnc3c(N)ncnc32)[C@H](O)[C@@H]1O [NECA] | 77000 nM | – | 84000 nM | – | – | – | – | 88000 nM | – | – | – | – | 65000 nM |
